Data from US7135466B2 (Kirin Beer Kabushiki Kaisha, priority 1999, dated 2006).
Where two headings read alike, the source gives them in different places.

Key:
PDGF-Ra = target: T1, PDGF-Ra (Homo sapiens, UniProt P16234); assay: Inhibitory activity against PDGF-Ra phosphorylation by PDGF-AA stimulation using G292; assay type: cell-based; conditions: for IC50: > means inhibition at indicated concentration not more than 50%, < and << not less than 50%, read-out: PDGF (E) IC50; for inhibition at 0.1 µM: G292, at 100 nM, read-out: PDGF (E) inhibition (%) at 100 nM
T1 construct: host or cells: G-292 human osteosarcoma cells
How it was run: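 Human osteosarcoma G-292, 0.1% FBS o/n; cpd (DMSO) 1 h 37 °C; PDGF-AA 50 ng/ml 5 min; lyse 20 min RT; PY-20 capture 4 °C o/n; anti-PDGF-Ra + HRP-GAR; OD450.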

c-kit = target: T2, c-kit (Homo sapiens, UniProt P10721); assay: Inhibitory activity against c-kit autophosphorylation (MO7e cells, h-SCF); assay type: cell-based; conditions: for inhibition at 1 µM: Mo7e, at 1000 nM; for IC50: MO7e cells, read-out: c-kit IC50
T2 construct: MO7e (human megakaryocytic leukemia cell line) which had been arrested for 20 hr; endogenous in cells; host or cells: MO7e human megakaryocytic leukemia cell line
How it was run: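 Growth-arrested (20 hr) MO7e; cpd in DMSO, 1 hr; h-SCF 50 ng/ml, 5 min; lyse. ELISA: anti-pTyr (PY-20) capture, anti-c-kit 1° Ab, HRP anti-rabbit 2° Ab, A450.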

[1] = figure within parentheses in >100( )
[2] = figure within parentheses in −( ) or >1000( )

T1 sequence (P16234 24-1089): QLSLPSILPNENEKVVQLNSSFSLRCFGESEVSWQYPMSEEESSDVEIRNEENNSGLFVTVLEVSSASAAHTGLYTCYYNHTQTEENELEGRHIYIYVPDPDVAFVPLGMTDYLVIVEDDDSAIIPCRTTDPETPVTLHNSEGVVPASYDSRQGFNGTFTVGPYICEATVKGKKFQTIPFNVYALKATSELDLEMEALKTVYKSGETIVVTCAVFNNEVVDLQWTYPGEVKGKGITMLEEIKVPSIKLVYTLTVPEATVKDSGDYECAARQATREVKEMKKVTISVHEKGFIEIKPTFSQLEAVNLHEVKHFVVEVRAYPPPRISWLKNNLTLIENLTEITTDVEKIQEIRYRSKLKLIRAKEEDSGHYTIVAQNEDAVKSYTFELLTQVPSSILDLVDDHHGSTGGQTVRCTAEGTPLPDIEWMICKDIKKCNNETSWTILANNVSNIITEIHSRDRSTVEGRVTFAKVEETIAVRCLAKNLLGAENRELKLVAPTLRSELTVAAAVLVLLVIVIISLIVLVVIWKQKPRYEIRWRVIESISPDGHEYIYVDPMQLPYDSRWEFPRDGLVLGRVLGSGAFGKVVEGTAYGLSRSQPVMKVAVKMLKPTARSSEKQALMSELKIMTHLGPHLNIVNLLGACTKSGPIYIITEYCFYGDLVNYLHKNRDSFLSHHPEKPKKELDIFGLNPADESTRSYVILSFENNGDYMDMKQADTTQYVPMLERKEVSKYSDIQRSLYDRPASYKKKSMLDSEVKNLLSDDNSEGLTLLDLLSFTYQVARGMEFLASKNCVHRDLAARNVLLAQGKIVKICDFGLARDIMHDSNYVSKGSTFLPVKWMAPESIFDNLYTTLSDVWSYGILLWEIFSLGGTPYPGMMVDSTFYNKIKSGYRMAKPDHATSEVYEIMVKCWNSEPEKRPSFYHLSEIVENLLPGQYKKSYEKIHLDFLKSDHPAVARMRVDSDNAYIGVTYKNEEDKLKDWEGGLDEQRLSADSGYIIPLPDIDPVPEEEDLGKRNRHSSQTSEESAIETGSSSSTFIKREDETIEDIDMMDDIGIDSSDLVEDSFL
T2 sequence (P10721 26-976): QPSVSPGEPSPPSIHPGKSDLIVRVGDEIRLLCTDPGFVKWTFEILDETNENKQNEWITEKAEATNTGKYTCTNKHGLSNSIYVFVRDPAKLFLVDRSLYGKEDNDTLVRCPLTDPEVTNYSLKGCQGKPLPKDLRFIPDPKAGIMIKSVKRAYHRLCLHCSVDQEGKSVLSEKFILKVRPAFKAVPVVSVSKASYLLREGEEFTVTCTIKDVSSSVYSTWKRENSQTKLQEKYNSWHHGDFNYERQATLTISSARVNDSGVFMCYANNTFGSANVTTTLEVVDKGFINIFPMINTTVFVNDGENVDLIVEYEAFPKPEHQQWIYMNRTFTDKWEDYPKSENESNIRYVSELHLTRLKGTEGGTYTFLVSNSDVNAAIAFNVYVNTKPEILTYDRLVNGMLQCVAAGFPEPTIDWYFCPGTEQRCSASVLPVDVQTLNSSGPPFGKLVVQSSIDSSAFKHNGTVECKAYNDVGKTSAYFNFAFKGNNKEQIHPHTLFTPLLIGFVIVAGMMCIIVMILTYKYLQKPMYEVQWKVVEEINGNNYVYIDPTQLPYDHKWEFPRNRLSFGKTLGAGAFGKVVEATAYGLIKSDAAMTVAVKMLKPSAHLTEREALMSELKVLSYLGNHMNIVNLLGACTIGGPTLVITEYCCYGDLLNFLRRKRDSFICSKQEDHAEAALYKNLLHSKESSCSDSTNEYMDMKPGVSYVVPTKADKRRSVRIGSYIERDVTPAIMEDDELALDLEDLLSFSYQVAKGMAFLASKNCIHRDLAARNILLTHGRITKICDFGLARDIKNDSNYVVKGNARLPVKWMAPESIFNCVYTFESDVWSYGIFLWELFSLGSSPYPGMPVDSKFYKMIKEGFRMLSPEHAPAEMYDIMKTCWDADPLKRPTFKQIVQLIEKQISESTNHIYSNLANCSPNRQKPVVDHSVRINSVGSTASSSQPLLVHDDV

SMILES	IC50 (PDGF-Ra) [nM]	IC50 (PDGF-Ra; Pharmacological Test Example 1) [nM]	IC50 (c-kit; h-SCF 50 ng/ml) [nM]	other results
COc1cc2nccc(Oc3cc(C)c(NC(=O)NCCN4CCCC4)cc3C)c2cc1OC [Example 619, N-{4-[(6,7-Dimethoxy-4-quinolyl)oxy]-2,5-dimethylphenyl}-N′-(2-tetrahydro-1H-1-pyrrolylethyl)urea]	> 100	–	–	inhibition at 0.1 µM (PDGF-Ra; [1]): 49%; inhibition at 1 µM (c-kit; [2]): 44%
COc1cc2nccc(Oc3ccc(NC(=O)OCC4CC4)cc3)c2cc1OC [Example 380, Cyclopropylmethyl N-{4-[(6,7-dimethoxy-4-quinolyl)oxy]phenyl}carbamate]	–	< 10	45	–
CCCC(OC(=O)Nc1ccc(Oc2ncnc3cc(OC)c(OC)cc23)cc1)c1ccccc1 (stereo not drawn) [Example 187, 1-Phenylbutyl N-{4-[(6,7-dimethoxy-4-quinazolinyl)oxy]phenyl}carbamate]	–	< 10	561	–
COc1cc2nccc(Oc3ccc(NCCOc4ccc(C)cc4)cc3C)c2cc1OC [Example 879, N-{4-[(6,7-Dimethoxy-4-quinolyl)oxy]-3-methylphenyl}-N-[2-(4-methylphenoxy)ethyl]amine]	20	–	–	IC50 (c-kit; h-SCF stimulation): 48 nM
COc1cc2ncnc(Oc3ccc(NC(=O)NC4CCN(Cc5ccccc5C)C4)c([N+](=O)[O-])c3)c2cc1OC (stereo not drawn) [Example 570, N-{4-[(6,7-Dimethoxy-4-quinazolinyl)oxy]-2-nitrophenyl}-N′-[1-(2-methylbenzyl)tetrahydro-1H-3-pyrrolyl]urea]	23	–	–	IC50 (c-kit; 50 ng/ml h-SCF): 173 nM
COc1cc2nccc(Oc3ccc(NC(=O)OCCCCCCN(C)C)c(C)c3C)c2cc1OC [Example 311, 6-(Dimethylamino)hexyl N-{4-[(6,7-dimethoxy-4-quinolyl)oxy]-2,3-dimethylphenyl}carbamate]	–	< 10	329	–
COc1cc2nccc(Oc3ccc(NC(=O)OCCOc4cccc(F)c4)c(C)c3C)c2cc1OC [Example 208, 2-(3-Fluorophenoxy)ethyl N-{4-[(6,7-dimethoxy-4-quinolyl)oxy]-2,3-dimethylphenyl}carbamate]	–	18	53	–
COc1ccc(C(C)OC(=O)Nc2cc(C)c(Oc3ccnc4cc(OC)c(OC)cc34)cc2C)cc1 (stereo not drawn) [Example 34, 1-(4-Methoxyphenyl)ethyl N-{4-[(6,7-dimethoxy-4-quinolyl)oxy]-2,5-dimethylphenyl}carbamate]	–	> 100	800	inhibition at 0.1 µM (PDGF-Ra; figure in parentheses in >100( )): 45%
CCN(CC)CCNC(=S)Nc1ccc(Oc2ccnc3cc(OC)c(OC)cc23)cc1 [Example 589, N-{4-[(6,7-Dimethoxy-4-quinolyl)oxy]phenyl}-N′-(2-diethylaminoethyl)thiourea]	28	–	–	IC50 (c-kit; 50 ng/ml h-SCF): 487 nM
COc1cc2nccc(Oc3ccc(NC(=O)OCCCOc4ccccc4F)c(C)c3C)c2cc1OC [Example 143, 3-(2-Fluorophenoxy)propyl N-{4-[(6,7-dimethoxy-4-quinolyl)oxy]-2,3-dimethylphenyl}carbamate]	–	< 10	< 30	–
COc1cc2nccc(Oc3ccc(NC(=S)NC(=O)c4ccc(CCl)cc4)c(F)c3)c2cc1OC [Example 996, N-[4-(Chloromethyl)benzoyl]-N′-{4-[(6,7-dimethoxy-4-quinolyl)oxy]-2-fluorophenyl}thiourea]	53	–	–	inhibition at 1 µM (c-kit; figure in parentheses in −( )): 27%
C=CCOC(=O)Nc1ccc(Oc2ccnc3cc(OC)c(OC)cc23)c(C)c1C [Example 374, Allyl N-{4-[(6,7-dimethoxy-4-quinolyl)oxy]-2,3-dimethylphenyl}carbamate]	–	< 10	< 30	–
COc1cc2nccc(Oc3ccc(NCCCOc4ccccc4Cl)c(C)c3C)c2cc1OC [Example 893]	52	–	–	IC50 (c-kit; h-SCF stimulation): 640 nM
COc1cc(Oc2ncnc3cc(OC)c(OC)cc23)ccc1NC(=O)OC1CCCCC1 [Example 497, Cyclohexyl N-{4-[(6,7-dimethoxy-4-quinazolinyl)oxy]-2-methoxyphenyl}carbamate]	< 10	–	–	IC50 (c-kit; 50 ng/ml h-SCF): 82 nM
COc1cc2nccc(Oc3ccc(NC(=O)Oc4ccccc4OC)cc3)c2cc1OC [Example 260, 2-Methoxyphenyl N-{4-[(6,7-dimethoxy-4-quinolyl)oxy]phenyl}carbamate]	–	6	180	–
COc1cc2nccc(Oc3ccc(NC(=O)Oc4c(OC)cccc4OC)cc3)c2cc1OC [Example 280, 2,6-Dimethoxyphenyl N-{4-[(6,7-dimethoxy-4-quinolyl)oxy]phenyl}carbamate]	–	< 10	370	–
CCC(CC)OC(=O)Nc1ccc(Oc2ncnc3cc(OC)c(OC)cc23)cc1 [Example 361, 1-Ethylpropyl N-{4-[(6,7-dimethoxy-4-quinazolinyl)oxy]phenyl}carbamate]	–	< 10	278	–

SMILES	IC50 (PDGF-Ra) [nM]	IC50 (PDGF-Ra; Pharmacological Test Example 1) [nM]	IC50 (c-kit; h-SCF 50 ng/ml) [nM]	other results
COc1cc2ncnc(Oc3ccc(N(C)C(=O)OCc4ccccc4C)c(Cl)c3)c2cc1OC [Example 479, 2-Methylbenzyl N-{2-chloro-4-[(6,7-dimethoxy-4-quinazolinyl)oxy]phenyl}-N-methylcarbamate]	13	–	–	inhibition at 1 µM (c-kit; [2]): 17%
CCCCC(CC)OC(=O)Nc1cc(C)c(Oc2ccnc3cc(OC)c(OC)cc23)cc1C (stereo not drawn) [Example 330, 1-Ethylpentyl N-{4-[(6,7-dimethoxy-4-quinolyl)oxy]-2,5-dimethylphenyl}carbamate]	–	12	467	–
COc1cc2nccc(Oc3ccc(NCCOc4ccccc4OC)cc3C)c2cc1OC [Example 880, N-{4-[(6,7-Dimethoxy-4-quinolyl)oxy]-3-methylphenyl}-N-[2-(2-methoxyphenoxy)ethyl]amine]	16	–	–	IC50 (c-kit; h-SCF stimulation): 149 nM
COc1cc2nccc(Oc3cc(C)c(NC(=O)OCc4ccccc4Cl)cc3C)c2cc1OC [Example 241, 2-Chlorobenzyl N-{4-[(6,7-dimethoxy-4-quinolyl)oxy]-2,5-dimethylphenyl}carbamate]	–	12	232	–
COc1cc2ncnc(Oc3ccc(NC(=O)OCCc4ccccc4)c(Cl)c3)c2cc1OC [Example 339, Phenethyl N-{2-chloro-4-[(6,7-dimethoxy-4-quinazolinyl)oxy]phenyl}carbamate]	–	38	197	–
COc1cc2nccc(Oc3ccc(NC(=O)OCc4ccccc4C)c(C)c3C)c2cc1OC [Example 232, 2-Methylbenzyl N-{4-[(6,7-dimethoxy-4-quinolyl)oxy]-2,3-dimethylphenyl}carbamate]	–	11	42	–
COc1cc2ncnc(Oc3ccc(NC(=O)NC4CCN(Cc5ccccc5)CC4)cc3)c2cc1OC [Example 591, N-{4-[(6,7-Dimethoxy-4-quinazolinyl)oxy]phenyl}-N′-[4-(N-benzyl)piperidinyl]urea]	33	–	–	IC50 (c-kit; 50 ng/ml h-SCF): 117 nM
COc1cccc(C(C)OC(=O)Nc2cc(C)c(Oc3ccnc4cc(OC)c(OC)cc34)cc2C)c1 (stereo not drawn) [Example 54, 1-(3-Methoxyphenyl)ethyl N-{4-[(6,7-dimethoxy-4-quinolyl)oxy]-2,5-dimethylphenyl}carbamate]	–	15	473	–
COc1cc2nccc(Oc3cc(C)c(NC(=S)NC(=O)c4cc(C)oc4C)cc3C)c2cc1OC [Example 717, N-{4-[(6,7-Dimethoxy-4-quinolyl)oxy]-2,5-dimethylphenyl}-N′-[(2 5-dimethyl-3-furyl)carbonyl]thiourea]	> 100	–	–	inhibition at 0.1 µM (PDGF-Ra; [1]): 8%
COc1cc2nccc(Oc3cc(C)c(NC(=O)OC4CCN(C)CC4)cc3C)c2cc1OC [Example 467, 1-Methyl-4-piperidyl N-{4-[(6,7-dimethoxy-4-quinolyl)oxy]-2,5-dimethylphenyl}carbamate]	> 100	–	–	inhibition at 0.1 µM (PDGF-Ra; [1]): 8%
COc1cc2nccc(Oc3ccc(NC(=S)NC(=O)Cc4ccccc4[N+](=O)[O-])cc3)c2cc1OC [Example 735, N-{4-[(6,7-Dimethoxy-4-quinolyl)oxy]phenyl}-N′-[2-(2-nitrophenyl)acetyl]thiourea]	15	–	–	–
COc1cc2nccc(Oc3ccc(NC(=S)NC(=O)c4ccc(Br)cc4)cc3)c2cc1OC [Example 1166, N-(4-Bromobenzoyl)-N′-{4-[(6,7-dimethoxy-4-quinolyl)oxy]phenyl}thiourea]	< 10	–	–	–
COc1cc2nccc(Oc3ccc(NC(=O)OC4CCN(C)CC4)c(C)c3C)c2cc1OC [Example 468, 1-Methyl-4-piperidyl N-{4-[(6,7-dimethoxy-4-quinolyl)oxy]-2,3-dimethylphenyl}carbamate]	> 100	–	–	inhibition at 0.1 µM (PDGF-Ra; [1]): 20%
COc1cc2nccc(Oc3ccc(NC(=O)OC(C#N)c4ccccc4)c(C)c3C)c2cc1OC (stereo not drawn) [Example 455, Cyano(phenyl)methyl N-{4-[(6,7-dimethoxy-4-quinolyl)oxy]-2,3-dimethylphenyl}carbamate]	77	–	–	–
COc1cc2ncnc(Oc3ccc(NC(=S)NC(=O)CCCCCl)cc3)c2cc1OC [Example 1170, N-(5-Chloropentanoyl)-N′-{4-[(6,7-dimethoxy-4-quinazolinyl)oxy]phenyl}thiourea]	< 10	–	–	–
COc1cc2nccc(Oc3cc(C)c(NC(=O)OC(C)c4cccc(OC(F)(F)F)c4)cc3C)c2cc1OC (stereo not drawn) [Example 182, 1-[3-(Trifluoromethoxy)phenyl]ethyl N-{4-[(6,7-dimethoxy-4-quinolyl)oxy]-2,5-dimethylphenyl}carbamate]	–	> 100	–	–
